“And” between values parts separate entries of the source, which are not always exact repeats. Equal entries are not always repeated. Inconclusive results and toxic doses are left out. Rule as the data show it: active = T/C of 150% or more; inactive = T/C below 125%.
System: L1210 leukemia ip in BDF1 mice, survival T/C
Test: NCI In Vivo Anticancer Drug Screen. Data for tumor model L1210 Leukemia (intraperitoneal) in B6D2F1 (BDF1) mice
Settings: endpoint: mean survival time, higher = longer survival
How it was run: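 Transplantable tumor model; survival measured in treated vs vehicle control mice. Value = treated/control.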

[1] = dose: 100.0 mg/kg/injection, schedule: Q01DX001 (ip), vehicle: saline
[2] = dose: 200.0 mg/kg/injection, schedule: Q01DX001 (ip), vehicle: saline
[3] = dose: 400.0 mg/kg/injection, schedule: Q01DX001 (ip), vehicle: saline
[4] = dose: 50.0 mg/kg/injection, schedule: Q01DX009 (ip), vehicle: saline
[5] = dose: 100.0 mg/kg/injection, schedule: Q01DX009 (ip), vehicle: saline
[6] = dose: 100.0 mg/kg/injection, schedule: Q04DX003 (ip), vehicle: saline
[7] = dose: 200.0 mg/kg/injection, schedule: Q01DX009 (ip), vehicle: saline
[8] = dose: 200.0 mg/kg/injection, schedule: Q04DX003 (ip), vehicle: saline
[9] = dose: 400.0 mg/kg/injection, schedule: Q01DX009 (ip), vehicle: saline
[10] = dose: 25.0 mg/kg/injection, schedule: Q01DX009 (ip), vehicle: saline
[11] = dose: 25.0 mg/kg/injection, schedule: Q04DX003 (ip), vehicle: saline
[12] = dose: 50.0 mg/kg/injection, schedule: Q04DX003 (ip), vehicle: saline
[13] = dose: 400.0 mg/kg/injection, schedule: Q04DX003 (ip), vehicle: saline
[14] = dose: 100.0 mg/kg/injection, schedule: Q01DX001 (ip), vehicle: Klucel (hydroxypropylcellulose) (HPC)
[15] = dose: 200.0 mg/kg/injection, schedule: Q01DX001 (ip), vehicle: Klucel (hydroxypropylcellulose) (HPC)
[16] = dose: 400.0 mg/kg/injection, schedule: Q01DX001 (ip), vehicle: Klucel (hydroxypropylcellulose) (HPC)
[17] = dose: 100.0 mg/kg/injection, schedule: Q01DX009 (ip), vehicle: Klucel (hydroxypropylcellulose) (HPC)
[18] = dose: 200.0 mg/kg/injection, schedule: Q01DX009 (ip), vehicle: Klucel (hydroxypropylcellulose) (HPC)
[19] = dose: 400.0 mg/kg/injection, schedule: Q01DX009 (ip), vehicle: Klucel (hydroxypropylcellulose) (HPC)

Measured: T/C

COCOCP(=O)(OC)OC
inactive: dose: 100.0 mg/kg/injection, schedule: Q01DX001 (ip), vehicle: acetone 102 % of control | dose: 100.0 mg/kg/injection, schedule: Q04DX003 (ip), vehicle: acetone 106 % of control | dose: 200.0 mg/kg/injection, schedule: Q01DX001 (ip), vehicle: acetone 98 % of control | dose: 200.0 mg/kg/injection, schedule: Q04DX003 (ip), vehicle: acetone 98 % of control | dose: 400.0 mg/kg/injection, schedule: Q01DX001 (ip), vehicle: acetone 95 % of control | dose: 400.0 mg/kg/injection, schedule: Q04DX003 (ip), vehicle: acetone 92 % of control

Cc1ccc(S(C)=O)cc1 (centres undefined)
inactive: [1] 102 % of control | [2] 95 % of control | [3] 95 % of control

O=C(O)c1nc2nc(Cl)c(Cl)nc2[nH]1
inactive: [4] 98 % of control | [5] 101 % of control and 90 % of control | [6] 100 % of control | [7] 93 % of control and 96 % of control | [8] 103 % of control | dose: 300.0 mg/kg/injection, schedule: Q01DX009 (ip), vehicle: saline 102 % of control | [9] 91 % of control

CCN(C(C)=O)c1ccccc1C#N
inactive: dose: 75.0 mg/kg/injection, schedule: Q01DX001 (ip), vehicle: saline 107 % of control | dose: 150.0 mg/kg/injection, schedule: Q01DX001 (ip), vehicle: saline 107 % of control

CCOP(=O)(NN(C)C)OCC
inactive: dose: 12.5 mg/kg/injection, schedule: Q01DX009 (ip), vehicle: saline 107 % of control | dose: 12.5 mg/kg/injection, schedule: Q04DX003 (ip), vehicle: saline 96 % of control | [10] 104 % of control | [11] 104 % of control | [4] 102 % of control | [12] 107 % of control | [5] 102 % of control | [6] 101 % of control | [7] 95 % of control | [8] 106 % of control | [9] 112 % of control | [13] 96 % of control

ClC1=C(Br)C(Br)(Br)C(=C(Br)Br)C1(Br)Br
inactive: dose: 100.0 mg/kg/injection, schedule: Q01DX009 (ip), vehicle: saline sonified 96 % of control | dose: 100.0 mg/kg/injection, schedule: Q04DX003 (ip), vehicle: Klucel (hydroxypropylcellulose) (HPC) 106 % of control | dose: 200.0 mg/kg/injection, schedule: Q01DX009 (ip), vehicle: saline sonified 94 % of control | dose: 200.0 mg/kg/injection, schedule: Q04DX003 (ip), vehicle: Klucel (hydroxypropylcellulose) (HPC) 103 % of control | dose: 400.0 mg/kg/injection, schedule: Q01DX009 (ip), vehicle: saline sonified 102 % of control | dose: 400.0 mg/kg/injection, schedule: Q04DX003 (ip), vehicle: Klucel (hydroxypropylcellulose) (HPC) 97 % of control

C#CCOC(C(=O)OC1CCN(C)CC1)(c1ccccc1)c1ccccc1
inactive: [11] 105 % of control | [12] 105 % of control | [6] 97 % of control and 98 % of control

CNC(=O)Oc1ccc([N+](C)(C)C)cc1
inactive: dose: 9.5 mg/kg/injection, schedule: Q01DX001 (ip), vehicle: saline 109 % of control | dose: 19.0 mg/kg/injection, schedule: Q01DX001 (ip), vehicle: saline 100 % of control

CN1CN(c2ccccc2)C2(CCN(Cc3nc4ccc(Cl)cc4[nH]3)CC2)C1=O
inactive: [14] 101 % of control | [15] 93 % of control | [16] 91 % of control

NC(Cc1c[nH]c2cc(F)ccc12)C(=O)O (centres undefined)
inactive: dose: 100.0 mg/kg/injection, schedule: Q01DX009 (ip), vehicle: other 97 % of control | dose: 200.0 mg/kg/injection, schedule: Q01DX009 (ip), vehicle: other 96 % of control | dose: 400.0 mg/kg/injection, schedule: Q01DX009 (ip), vehicle: other 97 % of control

O=C1CC(Nc2ccc(F)cc2)C(=O)N1c1ccc(F)cc1 (centres undefined)
inactive: dose: 75.0 mg/kg/injection, schedule: Q04DX003 (ip), vehicle: other 90 % of control | dose: 150.0 mg/kg/injection, schedule: Q04DX003 (ip), vehicle: other 92 % of control | dose: 300.0 mg/kg/injection, schedule: Q04DX003 (ip), vehicle: other 90 % of control

COC(=O)C1CCC(NS(=O)(=O)c2ccc(C)cc2)CC1 (centres undefined)
inactive: [14] 98 % of control | [15] 98 % of control | [16] 101 % of control

CC(=O)NCCC(=O)O
inactive: [6] 95 % of control | [8] 101 % of control | [13] 95 % of control

O=[N+]([O-])c1cccc(NSNc2cccc([N+](=O)[O-])c2)c1
inactive: dose: 50.0 mg/kg/injection, schedule: Q01DX001 (ip), vehicle: Klucel (hydroxypropylcellulose) (HPC) 100 % of control | [14] 98 % of control | [15] 87 % of control

CC(=O)C(C)C(=O)c1cc(C)c(Br)s1 (centres undefined)
inactive: dose: 100.0 mg/kg/injection, schedule: Q01DX001 (ip), vehicle: carboxymethylcellulose (CMC) 94 % of control | dose: 200.0 mg/kg/injection, schedule: Q01DX001 (ip), vehicle: carboxymethylcellulose (CMC) 97 % of control | dose: 400.0 mg/kg/injection, schedule: Q01DX001 (ip), vehicle: carboxymethylcellulose (CMC) 94 % of control

CCCCCCCCCCOc1ccc(C=Nc2ccc(CC)cc2)cc1
inactive: [17] 103 % of control | [18] 90 % of control | [19] 93 % of control

Nc1nnc(N)c2nc(-c3ccccc3)c(-c3ccccc3)nc12
inactive: [17] 101 % of control | [18] 101 % of control

ClC12CCC(Cl)(CC1)C2(Cl)Cl
inactive: [10] 95 % of control | [4] 103 % of control | [5] 96 % of control | [6] 98 % of control | [8] 95 % of control | [13] 98 % of control

COc1ccc(S(=O)O)cc1NC(C)=O
inactive: [1] 105 % of control | [5] 94 % of control | [6] 92 % of control and 100 % of control | [2] 96 % of control | [7] 87 % of control | [8] 93 % of control and 95 % of control | [3] 98 % of control | [9] 86 % of control | [13] 91 % of control and 93 % of control

O=C(c1ccccc1)N1CCN(C(=O)c2ccccc2)C1
inactive: [17] 91 % of control | [18] 98 % of control | [19] 104 % of control

O=Cc1nccc2c1[nH]c1ccccc12
inactive: dose: 25.0 mg/kg/injection, schedule: Q01DX009 (ip), vehicle: saline with Tween-80 96 % of control | dose: 50.0 mg/kg/injection, schedule: Q01DX009 (ip), vehicle: saline with Tween-80 97 % of control | dose: 100.0 mg/kg/injection, schedule: Q01DX009 (ip), vehicle: saline with Tween-80 86 % of control and 90 % of control

COC1=C(OC)C(=O)c2ccccc2C1=O
inactive: dose: 12.5 mg/kg/injection, schedule: Q01DX009 (ip), vehicle: Klucel (hydroxypropylcellulose) (HPC) 95 % of control | dose: 25.0 mg/kg/injection, schedule: Q01DX009 (ip), vehicle: Klucel (hydroxypropylcellulose) (HPC) 92 % of control | dose: 50.0 mg/kg/injection, schedule: Q01DX009 (ip), vehicle: Klucel (hydroxypropylcellulose) (HPC) 98 % of control

O=C(O)c1ccc([N+](=O)[O-])cc1OCc1ccccc1
inactive: dose: 100.0 mg/kg/injection, schedule: Q01DX001 (ip), vehicle: other 103 % of control | dose: 200.0 mg/kg/injection, schedule: Q01DX001 (ip), vehicle: other 95 % of control | dose: 400.0 mg/kg/injection, schedule: Q01DX001 (ip), vehicle: other 97 % of control

CC(C)[PH+]1c2ccccc2-c2ccccc21.CC(C)[PH+]1c2ccccc2-c2ccccc21.[Cl][Pt][Cl]
inactive: dose: 12.5 mg/kg/injection, schedule: Q04DX003 (ip), vehicle: saline with Tween-80 98 % of control | dose: 25.0 mg/kg/injection, schedule: Q04DX003 (ip), vehicle: saline with Tween-80 98 % of control | dose: 50.0 mg/kg/injection, schedule: Q04DX003 (ip), vehicle: saline with Tween-80 98 % of control

COc1ccc(Cc2nccc3c(OC)c(OC)ccc23)cc1OC
inactive: [10] 98 % of control | [11] 107 % of control | [4] 102 % of control | [12] 93 % of control | [5] 93 % of control | [6] 96 % of control and 103 % of control | [8] 86 % of control
